Data set [1] relates to AMP-activated protein kinase (AMPK). Conditions: cited from earlier work. The source says: (§1) An alternate potential strategy is to mimic adiponectin biological activity using small molecules.
A further data set deals with C57BL6/J mice. The data set is described as follows: Bleomycin-induced skin fibrosis in mice. The data set is classed as in vivo, mouse. Conditions: mice treated with ADP27, Supplementary Fig. 9a,b. The source says:
Bleomycin (BLM) or phosphate buffered saline (PBS) was given by daily subcutaneous (s.c.) injection for 14 consecutive days[55]. In some experiments, mice were given a single s.c. injection of adenovirus expressing constitutively-active TGF-ß1 (TGFß1^223/225 3x10^9 PFU/ml) or beta-galactosidase (5x10^9 PFU/ml)[56]. Peritoneal fibrosis was induced by i.p. injections of 0.1% chlorhexidine gluconate (CG; Wako Pure Chemical Industries, Osaka, Japan) dissolved in 15% ethanol/PBS given on alternate days for 21 days[35]. Synthetic peptides targeting AdipoR (ADP355 or ADP27)[37] or vehicle (PBS) at the indicated concentrations were administered by daily i.p. injection for 14 or 24 days. Each experimental group consisted of 4–8 mice, and experiments were repeated at least two times with consistent results. At the end of the experiments, mice were sacrificed and blood and tissue were collected for analysis.
Harvested skin or parietal peritoneal membrane samples were fixed in PFA, embedded in paraffin and 4 μm thick sections were stained with hematoxylin and eosin (H&E). Collagen deposition and organization were assessed using Masson’s Trichrome staining. Thickness of the dermis, dWAT or peritoneal membrane were determined at five randomly selected locations/slide using ImageJ software.
Collagen content of lesional skin was determined by measuring the hydroxyproline content in 6-mm punch biopsy samples (BioVision, Milpitas, CA) (16). Serum levels of adiponectin were determined by ELISA which measures all adiponectin isoforms (Millipore; #EZMADP-60K)[9].
RNA was isolated from skin samples using RNAeasy Fibrous Tissue Mini kit (Qiagen, Valencia, CA), or from fibroblast cultures, using the RNeasy Plus mini kit (Qiagen), and processed for qPCR as described. mRNA levels were normalized to the levels of 18 S RNA or GAPDH, and the relative amounts were calculated using the 2^−ΔΔCt method.

The conditions of data set [2]: cited from earlier work.
Excerpt: as §1

Turning to `NC(=O)c1ncn([C@@H]2O[C@H](CO)[C@@H](O)[C@H]2O)c1N` [AICAR], the “effect on or relative to the anti-fibrotic activities of adiponectin” value in data set [1] is given as “mimicked”.
With “H-LYYFAYHITV-NH2 [ADP27, H-Leu-Tyr-Tyr-Phe-Ala-Tyr-His-Ile-Thr-Val-NH2]”, the “anti-fibrotic effects in mice compared with ADP355” value in the data set on C57BL6/J mice is given as “Comparable anti-fibrotic effects”.
As to `c1cc(-c2cnn3cc(-c4ccc(OCCN5CCCCC5)cc4)cnc23)ccn1` [Compound C], the “effect on or relative to the anti-fibrotic activities of adiponectin” value in data set [1] is “blocked”.

B1: adiponectin: 30 kDa secreted adipokine abundant in the circulation (protein, UniProt Q15848 19-244, looked up)
Adiponectin: ETTTQGPGVLLPLPKGACTGWMAGIPGHPGHNGAPGRDGRDGTPGEKGEKGDPGLIGPKGDIGETGVPGAEGPRGFPGIQGRKGEPGEGAYVYRSAFSVGLETYVTIPNMPIRFTKIFYNQQNHYDGSTGKFHCNIPGLYYFAYHITVYMKDVKVSLFKKDKAMLFTYDQYQENNVDQASGSVLLHLEVGDQVWLQVYGEGERNGLYADNDNDSTFTGFLLYHDTN
As for B1, in data set [2], the half-life entry was “relatively short half-life” and the solubility result is on record as “extreme insolubility”.

The values are drawn from article PMC5493638, “Adiponectin is an endogenous anti-fibrotic mediator and therapeutic target” (Scientific Reports, 2017).
